Test results as given in ChEMBL document CHEMBL5678796, “A highly potent and selective farnesyltransferase inhibitor ABT-100 in preclinical studies” (Anticancer Drugs, 2005).

Experiments:
[1] = Inhibition of FTase in H-Ras transformed mouse NIH3T3 cells using Ras as substrate assessed as inhibition of substrate prenylation in presence of 10% bovine serum by immunoblot analysis; type: cell-based
[2] = Inhibition of FTase (unknown origin); design: species or system Homo sapiens
HCT-116 [3] = assay: Antitumor activity against human HCT-116 cells xenografted in nu/nu CD1 mouse assessed as tumor volume at 30 mg/kg, ip preinoculated with cells for 5 days followed by once every 3 days compound administration for 4 times and measured on day 22 (reference value: 1861 +/- 410 mm^3); type: functional; details: time 22 day
HCT-116 [4] = assay: Antitumor activity against human HCT-116 cells xenografted in nu/nu CD1 mouse assessed as reduction in tumor volume by measuring test to control ratio at 30 mg/kg, ip preinoculated with cells for 5 days followed by once every 3 days compound administration for 4 times and measured on day 22; type: functional; details: time 22 day
HCT-116 [5] = assay: Antitumor activity against human HCT-116 cells xenografted in nu/nu CD1 mouse assessed as increase in life span at 30 mg/kg, ip preinoculated with cells for 5 days followed by once every 3 days compound administration for 4 times and measured on day 22 relative to vehicle in time to 1 cm3 tumor; type: functional; details: HCT-116, 528 h, time 22 day
HCT-116 [6] = assay: Antitumor activity against human HCT-116 cells xenografted in nu/nu CD1 mouse assessed as increase in life span at 50 mg/kg, ip preinoculated with cells for 14 days followed by once every 4 days compound administration for 4 times and measured on day 40 relative to vehicle in time to 1 cm^3 tumor; type: functional; details: HCT-116, 960 h, time 40 day
[7] = Inhibition of recombinant bovine FTase incubated for 30 mins in presence of [3H]FPP by SPA based Topcount scintillation plate reader analysis; design: species or system Bos taurus
[8] = Inhibition of recombinant human FTase incubated for 30 mins in presence of [3H]FPP by SPA based Topcount scintillation plate reader analysis
[9] = Inhibition of recombinant bovine GGTase I incubated for 30 min sin presence of [3H]FPP by SPA based Topcount scintillation plate reader analysis; design: species or system Bos taurus
NIH3T3 [10] = assay: Inhibition of anchorage-independent growth in H-Ras transformed mouse NIH3T3 cells assessed as inhibition of colony formation incubated for 14 days in presence of 10% bovine serum by imaging based soft agar colony formation assay; type: functional, cell-based; details: NIH3T3, 336 h
HCT-116 [11] = assay: Inhibition of anchorage-independent growth in human HCT-116 cells assessed as inhibition of colony formation incubated for 14 days in presence of 10% FBS by imaging based soft agar colony formation assay; type: functional, cell-based; details: HCT-116, 336 h
NIH3T3 [12] = assay: Inhibition of anchorage-independent growth in H-Ras transformed mouse NIH3T3 cells assessed as inhibition of colony formation in presence of 10% bovine serum; type: functional, cell-based
HCT-116 [13] = assay: Inhibition of anchorage-independent growth in human HCT-116 cells assessed as inhibition of colony formation in presence of 10% FBS; type: functional, cell-based
[14] = Inhibition of GGTase in H-Ras transformed mouse NIH3T3 cells using Rap 1A as substrate assessed as inhibition of substrate prenylation in presence of 10% bovine serum by immunoblot analysis; type: cell-based
[15] = Inhibition of FTase in human HCT-116 cells expressing low level of P-gp1 using Ras as substrate assessed as inhibition of substrate post-translation processing in presence of 10% FBS by immunoblot analysis; type: cell-based
[16] = Inhibition of FTase in human HCT-116 cells expressing low level of P-gp1 using Ras as substrate assessed as inhibition of substrate post-translation processing in presence of 20% human serum by immunoblot analysis; type: cell-based
[17] = Inhibition of FTase in human DLD-1 cells expressing moderate level of P-gp1 using Ras as substrate assessed as inhibition of substrate post-translation processing in presence of 10% FBS by immunoblot analysis; type: cell-based
[18] = Inhibition of FTase in human DLD-1 cells expressing moderate level of P-gp1 using Ras as substrate assessed as inhibition of substrate post-translation processing in presence of 10% human serum by immunoblot analysis; type: cell-based
[19] = Inhibition of FTase in human HCT-15 cells expressing high level of P-gp1 using Ras as substrate assessed as inhibition of substrate post-translation processing in presence of 10% FBS by immunoblot analysis; type: cell-based
[20] = Inhibition of FTase in human HCT-15 cells expressing high level of P-gp1 using Ras as substrate assessed as inhibition of substrate post-translation processing in presence of 20% human serum by immunoblot analysis; type: cell-based
[21] = Ratio of EC50 for inhibition of FTase in human HCT-116 cells expressing low level of P-gp1 using Ras as substrate assessed as inhibition of substrate post-translation processing in presence of 20% human serum to EC50 for inhibition of FTase in human HCT-116 cells expressing low level of P-gp1 using Ras as substrate assessed as inhibition of substrate post-translation processing in presence of 10% …; details: condition cancer
[22] = Ratio of EC50 for inhibition of FTase in human DLD-1 cells expressing moderate level of P-gp1 using Ras as substrate assessed as inhibition of substrate post-translation processing in presence of 20% human serum to EC50 for inhibition of FTase in human DLD-1 cells expressing moderate level of P-gp1 using Ras as substrate assessed as inhibition of substrate post-translation processing in presence …; details: condition cancer
[23] = Ratio of EC50 for inhibition of FTase in human HCT-15 cells expressing high level of P-gp1 using Ras as substrate assessed as inhibition of substrate post-translation processing in presence of 20% human serum to EC50 for inhibition of FTase in human HCT-15 cells expressing high level of P-gp1 using Ras as substrate assessed as inhibition of substrate post-translation processing in presence of 10% …; details: condition cancer
HCT-116 [24] = assay: Antitumor activity against human HCT-116 cells xenografted in nu/nu CD1 mouse assessed as tumor volume at 100 mg/kg, sc preinoculated with cells for 5 days followed by twice daily compound administration for 21 days and measured on day 22 (reference value: 1436 +/- 263 mm^3); type: functional; details: time 22 day
HCT-116 [25] = assay: Antitumor activity against human HCT-116 cells xenografted in nu/nu CD1 mouse assessed as reduction in tumor volume by measuring test to control ratio at 100 mg/kg, sc preinoculated with cells for 5 days followed by twice daily compound administration for 21 days and measured on day 22; type: functional; details: time 22 day
HCT-116 [26] = assay: Antitumor activity against human HCT-116 cells xenografted in nu/nu CD1 mouse assessed as increase in life span at 100 mg/kg, sc preinoculated with cells for 5 days followed by twice daily compound administration for 21 days and measured on day 22 relative to vehicle in time to 1 cm3 tumor; type: functional; details: HCT-116, 528 h, time 22 day

Row | Structure (SMILES) | EC50 [1] | IC50 [7] | IC50 [8] | IC50 [9] | EC50 (NIH3T3 [10]) | EC50 (HCT-116 [11]) | EC50 [14] | EC50 [15] | EC50 [16] | EC50 [17] | EC50 [18] | EC50 [19] | EC50 [20] | Ratio EC50 [21] | Ratio EC50 [22] | Ratio EC50 [23] | also measured
1 | Cn1cncc1C(O)(COc1ccc(C#N)cc1-c1ccc(OC(F)(F)F)cc1)c1ccc(C#N)cc1 (stereo not drawn) | 2 nM | – | – | – | – | – | – | – | – | – | – | – | – | – | – | – | EC50 [2]: 0.6 nM
2 | Nc1ccn([C@@H]2O[C@H](CO)[C@@H](O)C2(F)F)c(=O)n1 [GEMCITABINE] | – | – | – | – | – | – | – | – | – | – | – | – | – | – | – | – | Activity (HCT-116 [3]): 359 mm3; T/C (HCT-116 [4]): 22%; ILS at 30 mg/kg (HCT-116 [5]): 112%
3 | CCc1c2c(nc3ccc(OC(=O)N4CCC(N5CCCCC5)CC4)cc13)-c1cc3c(c(=O)n1C2)COC(=O)[C@]3(O)CC [IRINOTECAN] | – | – | – | – | – | – | – | – | – | – | – | – | – | – | – | – | ILS at 50 mg/kg (HCT-116 [6]): 200%
4 | NC(=O)N1CCC(CC(=O)N2CCC([C@H]3c4ncc(Br)cc4CCc4cc(Cl)cc(Br)c43)CC2)CC1 [LONAFARNIB] | 160 nM | 7.8 nM | 4.9 nM | > 10000 nM | 56 nM | 94 nM | > 30 µM | 16 nM | 49 nM | 12 nM | 23 nM | 37 nM | 210 nM | 1.9 | 1.9 | 1.9 | EC50 (NIH3T3 [12]): 50 nM; EC50 (HCT-116 [13]): 74 nM
5 | Cn1cncc1[C@@](N)(c1ccc(Cl)cc1)c1ccc2c(c1)c(-c1cccc(Cl)c1)cc(=O)n2C [TIPIFARNIB] | 2.3 nM | 57 nM | 0.45 nM | 1040 nM | 3.7 nM | 24 nM | > 30 µM | 0.98 nM | 6.7 nM | 0.69 nM | 3.1 nM | 0.55 nM | 4.9 nM | 4.4 | 4.4 | 4.4 | Activity (HCT-116 [24]): 820 mm3; T/C (HCT-116 [25]): 56%; ILS at 100 mg/kg (HCT-116 [26]): 39%
